The target in the experiment is T1, PDGF-receptor beta enzyme comprising the tyrosine kinase domain (Homo sapiens, UniProt P09619).
T1 construct: from amino acid 545 to 1106 of GenBank Access NO: AAA36427
In words: Inhibition of PDGF-receptor kinase activity (cell-free, PLC1 peptide, 33P Flashplate). To be noted: PDGF-R kinase activity; for inhibition at 10 µM: compound at 10 uM, read-out: Percent Inhibition @ 10 uM; for pIC50: read-out: IC50. The experiment is classed as biochemical. As for the experimental part: PDGF-R kinase activity was assayed by its ability to phosphorylate one of its target proteins, PLCγ, in a cell-free system, in particular, a PLC1 peptide comprising the tyrosine residue where the phosphorylation occurs was used for the assay.
10× Kinase Buffer (500 mM Tris-HCl pH=8, 100 mM MgCl2, 1 mM Na3VO4); 10 mM DTT (final concentration at 1 mM in assay); 10 mM ATP (final concentration at 5 μM in assay); ^33P-γ-ATP (Cat. No.: NEG/602H. 2000-3000 Ci/mmol) purchased from NEN; Purified, soluble, recombinant PDGF-receptor beta enzyme comprising the tyrosine kinase domain (from amino acid 545 to 1106 of GenBank Access NO: AAA36427 ) at 0.4 mg/mL; Enzyme Dilution Buffer (50 mM Tris-HCl pH=8.0, 0.1% BSA); Wash/Stop Buffer (PBS +100 mM EDTA); NEN Streptavidin Flashplates (Cat. No.: SMP-103) which binds to the biotinylated PLC1 peptide but not the PDGF-R enzyme; PLC1 peptide (Biotin-[…]-Amide) at 1 mM in 50 mM Tris-HCL with pH of 8.0.
Reagents were first mixed according the following regimen:
The above reaction mixture was dispensed into each well of a Flashplate at 70 μl/well. To test the effect of a compound on PDGF-R kinase activity, the test compound either in a fixed concentration or in serially diluted concentrations in 100% DMSO was added to appropriate wells at 1 μl/well.
Enzyme PDGF-R was diluted in Enzyme dilution buffer as following:
The kinase reaction was initiated by adding 30 μl of diluted PDGF-R enzyme solution to each well on the Flashplate containing hot ATP and PLC1, except wells of column 12 rows E through H, which were used to calculate the plate background. The Flashplate was swirled to mix and was incubated at 30° C. for 60 minutes. Then, the reaction mixture was discarded and the Flashplate was washed 3 times each with 200 μl Wash/Stop Buffer. Subsequently, each well on the Flashplate was filled with 200 μl of Wash/Stop buffer. The amount of ^33P retained in each well was measured using a Packard TopCount after the plate was sealed with a transparent plate sealer.
The percentage of inhibition of the test compound on PDGF-R kinase activity is defined as […].
In order to test the potency of inhibition of present compounds, an IC50 for an individual compound was measured using the above procedure. As used herein, the IC50 for PDGF-R kinase activity refers to the concentration of an inhibitor at which the activity of the PDGF-R kinase is reduced by one-half as compared with reactions containing no inhibitor.

pIC50: −log10 of the molar value.

T1 sequence (P09619 545-1106): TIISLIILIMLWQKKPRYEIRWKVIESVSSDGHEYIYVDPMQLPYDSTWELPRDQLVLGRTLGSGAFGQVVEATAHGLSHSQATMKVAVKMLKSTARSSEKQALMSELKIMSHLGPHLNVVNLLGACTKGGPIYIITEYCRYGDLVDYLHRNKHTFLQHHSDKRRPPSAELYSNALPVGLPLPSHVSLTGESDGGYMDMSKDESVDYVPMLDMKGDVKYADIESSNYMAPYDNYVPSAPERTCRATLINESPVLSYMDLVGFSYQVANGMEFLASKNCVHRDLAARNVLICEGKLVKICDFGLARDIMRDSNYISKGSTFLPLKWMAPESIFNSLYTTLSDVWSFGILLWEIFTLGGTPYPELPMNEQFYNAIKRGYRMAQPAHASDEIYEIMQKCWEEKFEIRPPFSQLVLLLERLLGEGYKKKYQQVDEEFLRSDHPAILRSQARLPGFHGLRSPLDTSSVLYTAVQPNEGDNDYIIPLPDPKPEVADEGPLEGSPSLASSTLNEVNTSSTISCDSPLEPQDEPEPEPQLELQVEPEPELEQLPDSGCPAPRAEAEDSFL

The term inhibition denotes the relative decrease from the control value, in per cent. A word on the pIC50: it is the negative decadic logarithm of the IC50, by convention in mol/L. Take `COc1cc2c(cc1OC)-c1n[nH]c(Nc3cccc(Cl)c3Cl)c1C2` [Compound 20, (2,3-Dichloro-phenyl)-(6,7-dimethoxy-2,4-dihydro-indeno[1,2-c]pyrazol-3-yl)-amine]: the inhibition at 10 µM is 77% and the pIC50 was 5.96.
For the molecule `Clc1ccc2c(c1)Cc1c-2n[nH]c1Nc1ccccc1` [Compound 21, (6-Chloro-2,4-dihydro-indeno[1,2-c]pyrazol-3-yl)-phenyl-amine], the inhibition at 10 µM was 103% and the negative-log IC50 (pIC50) is 6.92.
Turning to `Cc1cccc2c1Cc1c-2n[nH]c1Nc1ccccc1` [Compound 23, (5-Methyl-2,4-dihydro-indeno[1,2-c]pyrazol-3-yl)-phenyl-amine], the inhibition at 10 µM amounted to 87% and the pIC50 was 5.71.
With `Fc1ccc2c(c1)Cc1c-2n[nH]c1Nc1ccccc1` [Compound 24, (6-Fluoro-2,4-dihydro-indeno[1,2-c]pyrazol-3-yl)-phenyl-amine], the inhibition at 10 µM is 71% and the pIC50 was 7.08.
The matching figures for `COc1cc2c(cc1OC)-c1n[nH]c(Nc3ccc(C(F)(F)F)cc3)c1C2` [Compound 25, (6,7-Dimethoxy-2,4-dihydro-indeno[1,2-c]pyrazol-3-yl)-(4-trifluoromethyl-phenyl)-amine]: 62% and 5.32.
The matching figures for `COc1ccccc1Nc1[nH]nc2c1Cc1cc(OC)c(OC)cc1-2` [Compound 27, (6,7-Dimethoxy-2,4-dihydro-indeno[1,2-c]pyrazol-3-yl)-(2-methoxy-phenyl)-amine]: 71% and 6.18.
The matching figures for `COc1cc2c(cc1OC)-c1n[nH]c(Nc3ccccc3C(F)(F)F)c1C2` [Compound 28, (6,7-Dimethoxy-2,4-dihydro-indeno[1,2-c]pyrazol-3-yl)-(2-trifluoromethyl-phenyl)-amine]: 96% and 4.72.
As to `COc1cc2c(cc1OC)-c1n[nH]c(Nc3ccccc3C)c1C2` [Compound 31, (6,7-Dimethoxy-2,4-dihydro-indeno[1,2-c]pyrazol-3-yl)-o-tolyl-amine], the inhibition at 10 µM is 59% and the pIC50 was 6.94.
For `COc1cc2c(cc1OC)-c1n[nH]c(Nc3ccc(C)cc3)c1C2` [Compound 33, (6,7-Dimethoxy-2,4-dihydro-indeno[1,2-c]pyrazol-3-yl)-p-tolyl-amine], the inhibition at 10 µM was 59% and the pIC50 is 5.85.
Turning to `COc1cc2c(cc1OC)-c1n[nH]c(Nc3cc(Cl)ccc3Cl)c1C2` [Compound 34, (2,5-Dichloro-phenyl)-(6,7-dimethoxy-2,4-dihydro-indeno[1,2-c]pyrazol-3-yl)-amine], the inhibition at 10 µM stood at 57% and the pIC50 is 5.16.
Take `O=C1c2ccccc2-c2n[nH]c(Nc3ccccc3)c21` [Compound 35, 3-Phenylamino-2H-indeno[1,2-c]pyrazol-4-one]: the inhibition at 10 µM stood at 88% and the pIC50 is 5.69.
As to `COc1cc2c(cc1OC)-c1n[nH]c(Nc3ccc4cn[nH]c4c3)c1C2` [Compound 37, (6,7-Dimethoxy-2,4-dihydro-indeno[1,2-c]pyrazol-3-yl)-(1H-indazol-6-yl)-amine], the inhibition at 10 µM was 80% and the pIC50 was 5.70.
The matching figures for `COc1cc2c(cc1OC)-c1n[nH]c(Nc3ccc(N(C)C)cc3)c1C2` [Compound 40]: 63% and 5.23.
On to `COc1cc2c(cc1OC)-c1n[nH]c(Nc3cc(OC)c(OC)c(OC)c3)c1C2` [Compound 42, (6,7-Dimethoxy-2,4-dihydro-indeno[1,2-c]pyrazol-3-yl)-(3,4,5-trimethoxy-phenyl)-amine], for which the inhibition at 10 µM turned out to be 85% and the pIC50 is 6.16.
With `COc1cc2c(cc1OC)-c1n[nH]c(Nc3ccccc3Br)c1C2` [Compound 43, (2-Bromo-phenyl)-(6,7-dimethoxy-2,4-dihydro-indeno[1,2-c]pyrazol-3-yl)-amine], the inhibition at 10 µM is 60% and the pIC50 is 6.71.
For `COc1cc2c(cc1OC)-c1n[nH]c(Nc3ccc(Br)cc3)c1C2` [Compound 45, (4-Bromo-phenyl)-(6,7-dimethoxy-2,4-dihydro-indeno[1,2-c]pyrazol-3-yl)-amine], the inhibition at 10 µM is 86% and the pIC50 was 5.66.
The matching figures for `COc1cc2c(cc1OC)-c1n[nH]c(Nc3cc(Cl)ccc3C)c1C2` [Compound 46, (5-Chloro-2-methyl-phenyl)-(6,7-dimethoxy-2,4-dihydro-indeno[1,2-c]pyrazol-3-yl)-amine]: 51% and 4.85.
With `COc1ccc(Nc2[nH]nc3c2Cc2cc(OC)c(OC)cc2-3)c(OC)c1` [Compound 47, (6,7-Dimethoxy-2,4-dihydro-indeno[1,2-c]pyrazol-3-yl)-(2,4-dimethoxy-phenyl)-amine], the inhibition at 10 µM came to 47%.
On to `COc1ccc(OC)c(Nc2[nH]nc3c2Cc2cc(OC)c(OC)cc2-3)c1` [Compound 48, (6,7-Dimethoxy-2,4-dihydro-indeno[1,2-c]pyrazol-3-yl)-(2,5-dimethoxy-phenyl)-amine], for which the inhibition at 10 µM was 39%.
With `COc1ccc(Nc2[nH]nc3c2Cc2cc(OC)c(OC)cc2-3)cc1OC` [Compound 49, (6,7-Dimethoxy-2,4-dihydro-indeno[1,2-c]pyrazol-3-yl)-(3,4-dimethoxy-phenyl)-amine], the inhibition at 10 µM was determined as 72% and the pIC50 was 5.51.
Take `OC1c2ccccc2-c2n[nH]c(Nc3ccccc3)c21` (stereo not shown) [Compound 50, 3-Phenylamino-2,4-dihydro-indeno[1,2-c]pyrazol-4-ol]: the inhibition at 10 µM stood at 38% and the negative-log IC50 (pIC50) is 4.94.
Turning to `COc1cc2c(cc1OC)-c1n[nH]c(Nc3ccc(N4CCN(C)CC4)cc3)c1C2` [Compound 51, (6,7-Dimethoxy-2,4-dihydro-indeno[1,2-c]pyrazol-3-yl)-[4-(4-methyl-piperazin-1-yl)-phenyl]-amine], the inhibition at 10 µM amounted to 30% and the pIC50 is 4.57.
Consider `c1ccc(Nc2[nH]nc3c2CCc2sccc2-3)cc1` [Compound 52, (4,5-Dihydro-2H-6-thia-1,2-diaza-as-indacen-3-yl)-phenyl-amine], for which the inhibition at 10 µM was found to be 71% and the pIC50 was 5.62.
The matching figures for `COc1cc2c(cc1OC)-c1n[nH]c(Nc3ccc(F)c(Cl)c3)c1C2` [Compound 53, (3-Chloro-4-fluoro-phenyl)-(6,7-dimethoxy-2,4-dihydro-indeno[1,2-c]pyrazol-3-yl)-amine]: 94% and 7.23.
The matching figures for `COc1cc2c(cc1OC)-c1n[nH]c(Nc3cc(F)ccc3F)c1C2` [Compound 55, (2,5-Difluoro-phenyl)-(6,7-dimethoxy-2,4-dihydro-indeno[1,2-c]pyrazol-3-yl)-amine]: 76% and 6.20.
Turning to `COc1ccc(Cl)cc1Nc1[nH]nc2c1Cc1cc(OC)c(OC)cc1-2` [Compound 56, (5-Chloro-2-methoxy-phenyl)-(6,7-dimethoxy-2,4-dihydro-indeno[1,2-c]pyrazol-3-yl)-amine], the inhibition at 10 µM turned out to be 36% and the pIC50 is 5.08.
The matching figures for `COc1cc2c(cc1OC)-c1n[nH]c(Nc3ccccc3C(C)C)c1C2` [Compound 57, (6,7-Dimethoxy-2,4-dihydro-indeno[1,2-c]pyrazol-3-yl)-(2-isopropyl-phenyl)-amine]: 71% and 5.67.
`CCc1ccccc1Nc1[nH]nc2c1Cc1cc(OC)c(OC)cc1-2` [Compound 58, (6,7-Dimethoxy-2,4-dihydro-indeno[1,2-c]pyrazol-3-yl)-(2-ethyl-phenyl)-amine]: the inhibition at 10 µM amounted to 40% and the pIC50 is 5.07.
Take `COc1cc2c(cc1OC)-c1n[nH]c(Nc3ccc(C#N)cc3)c1C2` [Compound 59, 4-(6,7-Dimethoxy-2,4-dihydro-indeno[1,2-c]pyrazol-3-ylamino)-benzonitrile]: the inhibition at 10 µM was 71% and the pIC50 was 5.74.
The matching figures for `COc1cc2c(cc1OC)-c1n[nH]c(Nc3cccc(C#N)c3)c1C2` [Compound 61, 3-(6,7-Dimethoxy-2,4-dihydro-indeno[1,2-c]pyrazol-3-ylamino)-benzonitrile]: 71% and 6.86.
